# According to US9091678B2, “Method for identifying compounds useful for treating and/or preventing disease-associated bone loss” (priority 2008, dated 2015):
# System: RAW264.7 cells
# Assay: Toxicity test on osteoclast precursors
# Assay type: cell-based
# Details: RAW264.7 cells grown 72 hours with 10 to 100 μM of compound, vs 0.5% DMSO control
# Protocol: The selected compounds were then tested for their toxicity on osteoclast precursors. […] RAW264.7 cells used as osteoclasts […] were allowed to grow for 72 hours with 10 to 100 μM of compound. The growth of the cells was compared to control cells which were grown with 0.5% DMSO.
row,SMILES,Concentration μM (optimal concentration which does not affect the growth of the cells) [µM]
1,"O=C1NC(=O)N(c2ccccc2Cl)C(=O)C1=Cc1ccccc1 [Compound 48, 5-benzylidene-1-(2-chlorophenyl)-2,4,6(1H,3H,5H)-pyrimidinetrione]",100
2,"O=Cc1cn(Cc2ccc(Cl)c(Cl)c2)c2ccccc12 [Compound 35, 1-(3,4-dichlorobenzyl)-1H-indole-3-carbaldehyde]",50

# System: RAW264.7 cells differentiated in osteoclasts
# Assay: Toxicity test on differentiated osteoclasts (TRAP staining, morphology)
# Assay type: cell-based
# Design: key: compounds which induce the death of all the osteoclasts after 72 hours (−); compounds which induce morphological anomalies and/or death of part of the osteoclasts (+/−); +: Compounds which do not induce visible modifications of the osteoclasts
# Details: at the concentration given in Table 2, vs 0.5% DMSO control
# Protocol: The compounds were tested for their toxicity on differentiated osteoclasts at the concentration determined above. RAW264.7 cells differentiated in osteoclasts were allowed to grow for 72 hours in presence of the tested compounds. […] This osteoclasts specific labeling permits to visualize the cell morphology. The cell morphology was then compared to control cells which were allowed to grow in presence of 0.5% DMSO.
row,SMILES,Survival at 72 hours
1,"O=C1NC(=O)N(c2ccccc2Cl)C(=O)C1=Cc1ccccc1 [Compound 48, 5-benzylidene-1-(2-chlorophenyl)-2,4,6(1H,3H,5H)-pyrimidinetrione]",+
2,"C=C1c2ccc(C)cc2NC(=O)N1c1cccc(Cl)c1 [Compound 11, 3-(3-chlorophenyl)-7-methyl-4-methylene-3,4-dihydro-2(1H)-quinazolinone]",−
3,"O=C(O)CCC(=O)N1N=C(c2ccc([N+](=O)[O-])cc2)CC1c1ccc(Br)cc1 (stereo not drawn) [Compound 4, 4-[5-(4-bromophenyl)-3-(4-nitrophenyl)-4,5-dihydro-1H-pyrazol-1-yl]-4-oxobutanoic acid]",−
4,"CCOc1ccc(NC(=O)CSc2nnc(-c3ccc(OC)cc3)o2)cc1 [Compound 3, N-(4-ethoxyphenyl)-2-{[5-(4-methoxyphenyl)-1,3,4-oxadiazol-2-yl]thio}acetamide]",+/−
5,"CCOC(=O)C1=C(C)N=c2sc(=Cc3cc(Cl)c(OCC(=O)O)c(OC)c3)c(=O)n2C1c1ccccc1Cl (stereo not drawn) [Compound 25, (2-chloro-4-{[5-(2-chlorophenyl)-6-(ethoxycarbonyl)-7-methyl-3-oxo-5H-[1,3]thiazolo[3,2-a]pyrimidin-2(3H)-ylidene]methyl}-6-methoxyphenoxy)acetic acid]",−
6,"Cc1ccc(/C=C/C(=O)Nc2ccccc2Br)o1 [Compound 6, N-(2-bromophenyl)-3-(5-methyl-2-furyl)acrylamide]",+
7,"COc1ccc(NC(=O)c2ccccc2Cl)cc1Cl [Compound 51, 2-chloro-N-(3-chloro-4-methoxyphenyl)benzamide]",+
8,"COc1ccc(NC(=O)c2ccc(N(C)S(=O)(=O)c3ccccc3)cc2)cc1OC [Compound 37, N-(3,4-dimethoxyphenyl)-4-[methyl(phenylsulfonyl)amino]benzamide]",−
9,"O=C1c2ccccc2NC(c2c(Cl)cccc2Cl)N1Cc1ccccc1 (stereo not drawn) [Compound 33, 3-benzyl-2-(2,6-dichlorophenyl)-2,3-dihydro-4(1H)-quinazolinone]",−
10,"O=C(/C=C/c1cccc(C(F)(F)F)c1)Nc1ccc(F)cc1 [Compound 54, N-(4-fluorophenyl)-3-[3-(trifluoromethyl)phenyl]acrylamide]",−
11,"O=C(Nc1cccc2nsnc12)c1ccc(Br)o1 [Compound 20, N-2,1,3-benzothiadiazol-4-yl-5-bromo-2-furamide]",−
12,"COCCOC(=O)c1ccc(NC(=O)c2ccc(C(C)(C)C)cc2)cc1 [Compound 44, 2-methoxyethyl 4-[(4-tert-butylbenzoyl)amino]benzoate]",−
13,"CC(=O)N1CCN(c2ccc([N+](=O)[O-])cc2Cl)CC1C (stereo not drawn) [Compound 22, 1-acetyl-4-(2-chloro-4-nitrophenyl)-2-methylpiperazine]",−
14,"O=C(COc1ccccc1Cl)Nc1cc(C(F)(F)F)ccc1Cl [Compound 12, 2-(2-chlorophenoxy)-N-[2-chloro-5-(trifluoromethyl)phenyl]acetamide]",+
15,"COc1cc([N+](=O)[O-])ccc1N=S(C)C [Compound 43, 1-[(dimethyl-lambda~4~-sulfanylidene)amino]-2-methoxy-4-nitrobenzene]",+
16,"Cc1ccc(/C=C/C(=O)Nc2cccc(Cl)c2Cl)o1 [Compound 47, N-(2,3-dichlorophenyl)-3-(5-methyl-2-furyl)acrylamide]",−
17,"O=C(/C=C/c1ccc(F)cc1)Nc1ccccc1Cl [Compound 40, N-(2-chlorophenyl)-3-(4-fluorophenyl)acrylamide]",+
18,"Cc1cc(=O)n2ccc(CN(C)C)c(O)c2n1 [Compound 14, 8-[(dimethylamino)methyl]-9-hydroxy-2-methyl-4H-pyrido[1,2-a]pyrimidin-4-one]",+
19,"Cc1ccc(OCc2nnc(NC(=O)Nc3ccc(Cl)c(Cl)c3)s2)cc1 [Compound 53, N-(3,4-dichlorophenyl)-N′-{5-[(4-methylphenoxy)methyl]-1,3,4-thiadiazol-2-yl}urea]",+/−

row,SMILES,Survival at 72 hours
1,"O=S(=O)(c1cccc2nsnc12)N1CCN(C(c2ccccc2)c2ccccc2)CC1 [Compound 26, 4-{[4-(diphenylmethyl)-1-piperazinyl]sulfonyl}-2,1,3-benzothiadiazole]",−
2,"O=C(Nc1cc(Cl)cc(Cl)c1)S(=O)(=O)c1ccccc1 [Compound 21, (3,5-dichlorophenyl)[(phenylsulfonyl)carbonyl]amine]",+/−
3,"Oc1ccccc1C(=S)N1N=C(c2ccccc2)CC1(O)C(F)(F)F (stereo not drawn) [Compound 42, 1-[(2-hydroxyphenyl)carbonothioyl]-3-phenyl-5-(trifluoromethyl)-4,5-dihydro-1H-pyrazol-5-ol]",−
4,"CC(C)(C)c1cc(C2Nc3cccc4cccc(c34)N2)cc(C(C)(C)C)c1O [Compound 30, 2,6-di-tert-butyl-4-(2,3-dihydro-1H-perimidin-2-yl)phenol]",−
5,"CC1=NN(c2cccc(C(=O)O)c2)C(=O)/C1=C\c1cccc(Br)c1 [Compound 18, 3-[4-(3-bromobenzylidene)-3-methyl-5-oxo-4,5-dihydro-1H-pyrazol-1-yl]benzoic acid]",−
6,"Oc1ccc(-c2nc(-c3ccccc3)c(-c3cccs3)[nH]2)cc1O [Compound 34, 4-[4-phenyl-5-(2-thienyl)-1H-imidazol-2-yl]-1,2-benzenediol]",−
7,"COc1ccccc1NC(=O)/C(=C\c1cccs1)NC(=O)c1ccc(C(C)(C)C)cc1 [Compound 46, 4-tert-butyl-N-[1-{[(2-methoxyphenyl)amino]carbonyl}-2-(2-thienyl)vinyl]benzamide]",+
8,"Cc1ccc(N(C(=O)C(Cl)(Cl)Cl)C2C=CS(=O)(=O)C2)cc1 (stereo not drawn) [Compound 5, 2,2,2-trichloro-N-(1,1-dioxido-2,3-dihydro-3-thienyl)-N-(4-methylphenyl)acetamide]",−
9,"CCc1nc(-c2ccccc2)nc(C)c1C [Compound 50, 4-ethyl-5,6-dimethyl-2-phenylpyrimidine]",+
10,"O=C(O)/C=C/c1ccc(-c2ccc(Cl)c(Cl)c2)o1 [Compound 24, 3-[5-(3,4-dichlorophenyl)-2-furyl]acrylic acid]",−
11,"CCC(=O)Nc1ccc(N2CCN(C(C)=O)CC2)cc1 [Compound 13, N-[4-(4-acetyl-1-piperazinyl)phenyl]propanamide]",+
12,"O=C(Nc1ccccc1)Nc1nnc(C23CC4CC(CC(C4)C2)C3)s1 [Compound 49, N-[5-(1-adamantyl)-1,3,4-thiadiazol-2-yl]-N′-phenylurea]",+/−
13,"O=C(COc1cccc2ccccc12)Nc1ccc2c(c1)OCCO2 [Compound 10, N-(2,3-dihydro-1,4-benzodioxin-6-yl)-2-(1-naphthyloxy)acetamide]",+
14,"CCOc1ccc(C(=O)Nc2ccc(N3CCN(C(C)=O)CC3)cc2)cc1[N+](=O)[O-] [Compound 27, N-[4-(4-acetyl-1-piperazinyl)phenyl]-4-ethoxy-3-nitrobenzamide]",+
15,"O=C1/C(=C\c2ccc([N+](=O)[O-])cc2)SC(=S)N1c1cccc(C(F)(F)F)c1 [Compound 16, 5-(4-nitrobenzylidene)-2-thioxo-3-[3-(trifluoromethyl)phenyl]-1,3-thiazolidin-4-one]",+/−
16,"O=C1c2ccccc2NC(c2ccccc2O)N1Cc1ccco1 (stereo not drawn) [Compound 55, 3-(2-furylmethyl)-2-(2-hydroxyphenyl)-2,3-dihydro-4(1H)-quinazolinone]",−
17,"COc1cccc(/C=C2/C=C(c3ccc(C)cc3)OC2=O)c1 [Compound 23, 3-(3-methoxybenzylidene)-5-(4-methylphenyl)-2(3H)-furanone]",−
18,"O=Cc1cn(Cc2ccc(Cl)c(Cl)c2)c2ccccc12 [Compound 35, 1-(3,4-dichlorobenzyl)-1H-indole-3-carbaldehyde]",−
